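Where inhibition never reached the appropriate level, the endpoint shown equals the highest concentration tested. Otherwise, values were interpolated linearly from a five-concentration, 48-hour dose response in 96-well plates. GI50: concentration for 50% inhibition of growth.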 The source made the active and inactive calls. Cut-off read from the data, not from the text of the source: active = GI50 up to about 1.1 µM and inactive = higher.
Key:
Assay in all cases: NCI tumour cell line growth inhibition, 48 h
786-0 = test system: 786-0
A498 = test system: A498
A549 = test system: A549
ACHN = test system: ACHN
BT-549 = test system: BT-549
CAKI-1 = test system: CAKI-1
CCRF-CEM = test system: CCRF-CEM
COLO 205 = test system: COLO 205
EKVX = test system: EKVX
HCC 2998 = test system: HCC 2998
HCT-116 = test system: HCT-116
HCT-15 = test system: HCT-15
HOP-62 = test system: HOP-62
K562 = test system: K562
KM12 = test system: KM12
LOX IMVI = test system: LOX IMVI
M14 = test system: M14
MCF7 = test system: MCF7
MDA-MB-231 = test system: MDA-MB-231
MDA-MB-435 = test system: MDA-MB-435
MDA-N = test system: MDA-N
Malme-3M = test system: Malme-3M
NCI-H226 = test system: NCI-H226
NCI-H23 = test system: NCI-H23
NCI-H460 = test system: NCI-H460
NCI-H522 = test system: NCI-H522
NCI/ADR-RES = test system: NCI/ADR-RES
OVCAR-3 = test system: OVCAR-3
OVCAR-4 = test system: OVCAR-4
OVCAR-5 = test system: OVCAR-5
OVCAR-8 = test system: OVCAR-8
PC-3 = test system: PC-3
RPMI-8226 = test system: RPMI-8226
RXF 393 = test system: RXF 393
SF-268 = test system: SF-268
SF-295 = test system: SF-295
SF-539 = test system: SF-539
SK-MEL-28 = test system: SK-MEL-28
SK-MEL-2 = test system: SK-MEL-2
SK-MEL-5 = test system: SK-MEL-5
SK-OV-3 = test system: SK-OV-3
SN12C = test system: SN12C
SNB-19 = test system: SNB-19
SNB-75 = test system: SNB-75
SW-620 = test system: SW-620
T47D = test system: T47D
TK-10 = test system: TK-10
UACC-257 = test system: UACC-257
UO-31 = test system: UO-31
DU-145 = test system: DU-145
HOP-92 = test system: HOP-92
HT-29 = test system: HT-29
IGROV-1 = test system: IGROV-1
MOLT-4 = test system: MOLT-4
U-251 = test system: U-251
HL-60 = test system: HL-60
Hs-578T = test system: Hs-578T
SR = test system: SR
UACC-62 = test system: UACC-62

Cc1cc2nc3c(C#N)c(-c4ccccc4)cc(Nc4cccc(C(F)(F)F)c4)n3c2cc1C
GI50 (786-0): 4.4 µM (inactive)
GI50 (A498): 6.05 µM (inactive)
GI50 (A549): 3.18 µM (inactive)
GI50 (ACHN): 3.4 µM (inactive)
GI50 (BT-549): 10.5 µM (inactive)
GI50 (CAKI-1): 4.85 µM (inactive)
GI50 (CCRF-CEM): 3.6 µM (inactive)
GI50 (COLO 205): 4.17 µM (inactive)
GI50 (EKVX): 4.68 µM (inactive)
GI50 (HCC 2998): 3.84 µM (inactive)
GI50 (HCT-116): 2.7 µM (inactive)
GI50 (HCT-15): 4.73 µM
GI50 (HOP-62): 9.98 µM (inactive)
GI50 (K562): 0.392 µM (active)
GI50 (KM12): 4.07 µM (inactive)
GI50 (LOX IMVI): 9.12 µM (inactive)
GI50 (M14): 4.78 µM (inactive)
GI50 (MCF7): 3.91 µM (inactive)
GI50 (MDA-MB-231): 3.43 µM (inactive)
GI50 (MDA-MB-435): 5.13 µM (inactive)
GI50 (MDA-N): 4.04 µM (inactive)
GI50 (Malme-3M): 7.87 µM (inactive)
GI50 (NCI-H226): 3.86 µM (inactive)
GI50 (NCI-H23): 5.25 µM (inactive)
GI50 (NCI-H460): 3.33 µM (inactive)
GI50 (NCI-H522): 4.49 µM (inactive)
GI50 (NCI/ADR-RES): 4.07 µM (inactive)
GI50 (OVCAR-3): 2.21 µM (inactive)
GI50 (OVCAR-4): 5.28 µM (inactive)
GI50 (OVCAR-5): 12.9 µM (inactive)
GI50 (OVCAR-8): 4.14 µM (inactive)
GI50 (PC-3): 2.56 µM (inactive)
GI50 (RPMI-8226): 1.61 µM (inactive)
GI50 (RXF 393): 5.48 µM (inactive)
GI50 (SF-268): 6.97 µM (inactive)
GI50 (SF-295): 7.19 µM (inactive)
GI50 (SF-539): 3.78 µM (inactive)
GI50 (SK-MEL-28): 9.02 µM (inactive)
GI50 (SK-MEL-2): 2.61 µM (inactive)
GI50 (SK-MEL-5): 3.21 µM (inactive)
GI50 (SK-OV-3): 6.1 µM (inactive)
GI50 (SN12C): 3.68 µM (inactive)
GI50 (SNB-19): 4.86 µM (inactive)
GI50 (SNB-75): 8.83 µM (inactive)
GI50 (SW-620): 3.74 µM (inactive)
GI50 (T47D): 4.16 µM (inactive)
GI50 (TK-10): 7.69 µM (inactive)
GI50 (UACC-257): 3.48 µM (inactive)
GI50 (UO-31): 5.08 µM (inactive)

CC(=O)[C@@H]1C/C(=C\OCc2ccccc2)O[C@H]1C
GI50 (786-0): > 100 µM (inactive)
GI50 (A498): > 100 µM (inactive)
GI50 (A549): > 100 µM (inactive)
GI50 (ACHN): > 100 µM (inactive)
GI50 (BT-549): > 100 µM (inactive)
GI50 (CAKI-1): > 100 µM (inactive)
GI50 (COLO 205): > 100 µM (inactive)
GI50 (DU-145): > 100 µM (inactive)
GI50 (EKVX): > 100 µM (inactive)
GI50 (HCT-116): > 100 µM (inactive)
GI50 (HCT-15): > 100 µM
GI50 (HOP-62): > 100 µM (inactive)
GI50 (HOP-92): > 100 µM (inactive)
GI50 (HT-29): > 100 µM (inactive)
GI50 (IGROV-1): > 100 µM (inactive)
GI50 (K562): 54 µM (inactive)
GI50 (KM12): > 100 µM (inactive)
GI50 (LOX IMVI): 61.2 µM (inactive)
GI50 (M14): > 100 µM (inactive)
GI50 (MDA-MB-231): > 100 µM (inactive)
GI50 (MDA-MB-435): > 100 µM (inactive)
GI50 (MOLT-4): > 100 µM (inactive)
GI50 (Malme-3M): > 100 µM (inactive)
GI50 (NCI-H226): > 100 µM (inactive)
GI50 (NCI-H23): > 100 µM (inactive)
GI50 (NCI-H460): > 100 µM (inactive)
GI50 (NCI-H522): > 100 µM (inactive)
GI50 (NCI/ADR-RES): > 100 µM (inactive)
GI50 (OVCAR-3): > 100 µM (inactive)
GI50 (OVCAR-4): > 100 µM (inactive)
GI50 (OVCAR-5): > 100 µM (inactive)
GI50 (OVCAR-8): > 100 µM (inactive)
GI50 (RPMI-8226): > 100 µM (inactive)
GI50 (RXF 393): > 100 µM (inactive)
GI50 (SF-268): > 100 µM (inactive)
GI50 (SF-295): > 100 µM (inactive)
GI50 (SF-539): > 100 µM (inactive)
GI50 (SK-MEL-28): > 100 µM (inactive)
GI50 (SK-MEL-5): > 100 µM (inactive)
GI50 (SK-OV-3): > 100 µM (inactive)
GI50 (SN12C): > 100 µM (inactive)
GI50 (SNB-19): > 100 µM (inactive)
GI50 (SNB-75): > 100 µM (inactive)
GI50 (SW-620): > 100 µM (inactive)
GI50 (T47D): > 100 µM (inactive)
GI50 (TK-10): > 100 µM (inactive)
GI50 (U-251): > 100 µM (inactive)
GI50 (UACC-257): > 100 µM (inactive)
GI50 (UO-31): > 100 µM (inactive)

Cc1ccc2c(=O)cc(-c3cccc(F)c3)[nH]c2n1
GI50 (786-0): 0.0446 µM (active)
GI50 (A498): 0.052 µM (active)
GI50 (A549): 0.0476 µM (active)
GI50 (ACHN): 0.0514 µM (active)
GI50 (BT-549): 0.0348 µM (active)
GI50 (CAKI-1): 0.0498 µM (active)
GI50 (CCRF-CEM): 0.0446 µM (active)
GI50 (COLO 205): 0.0224 µM (active)
GI50 (DU-145): 0.0504 µM (active)
GI50 (EKVX): 0.0719 µM (active)
GI50 (HCC 2998): 0.0586 µM (active)
GI50 (HCT-116): 0.0406 µM (active)
GI50 (HCT-15): 0.0381 µM
GI50 (HL-60): 0.0212 µM (active)
GI50 (HOP-62): 0.0655 µM (active)
GI50 (HOP-92): 0.9 µM (active)
GI50 (HT-29): 0.0359 µM (active)
GI50 (Hs-578T): 0.0237 µM (active)
GI50 (IGROV-1): 0.0755 µM (active)
GI50 (K562): 0.0313 µM (active)
GI50 (KM12): 0.022 µM (active)
GI50 (LOX IMVI): 0.0518 µM (active)
GI50 (M14): 0.0361 µM (active)
GI50 (MCF7): 0.0334 µM (active)
GI50 (MDA-MB-231): 0.0845 µM (active)
GI50 (MDA-MB-435): 0.0111 µM (active)
GI50 (MDA-N): < 0.012 µM (active)
GI50 (MOLT-4): 0.0542 µM (active)
GI50 (Malme-3M): 0.0379 µM (active)
GI50 (NCI-H226): 0.0336 µM (active)
GI50 (NCI-H23): 0.0501 µM (active)
GI50 (NCI-H460): 0.0356 µM (active)
GI50 (NCI-H522): 0.0188 µM (active)
GI50 (NCI/ADR-RES): 0.0196 µM (active)
GI50 (OVCAR-3): 0.0201 µM (active)
GI50 (OVCAR-4): 1.61 µM (inactive)
GI50 (OVCAR-5): 0.0564 µM (active)
GI50 (OVCAR-8): 0.0638 µM (active)
GI50 (PC-3): 0.0327 µM (active)
GI50 (RPMI-8226): 0.0397 µM (active)
GI50 (RXF 393): 0.0415 µM (active)
GI50 (SF-268): 0.0678 µM (active)
GI50 (SF-295): 0.0321 µM (active)
GI50 (SF-539): 0.0728 µM (active)
GI50 (SK-MEL-28): 0.64 µM (active)
GI50 (SK-MEL-2): 0.0398 µM (active)
GI50 (SK-MEL-5): 0.0206 µM (active)
GI50 (SK-OV-3): 0.0403 µM (active)
GI50 (SN12C): 0.0746 µM (active)
GI50 (SNB-19): 0.153 µM (active)
GI50 (SNB-75): 0.0218 µM (active)
GI50 (SR): 0.0224 µM (active)
GI50 (SW-620): 0.0251 µM (active)
GI50 (TK-10): 1.94 µM (inactive)
GI50 (U-251): 0.0389 µM (active)
GI50 (UACC-257): 0.0395 µM (active)
GI50 (UACC-62): 0.0461 µM (active)
